According to US11053204B2, “Pyrimidinyloxy benzene derivatives as herbicides” (FMC Corporation, priority 2015, dated 2021):

Experiments:
Assay in all cases: Test C postemergence, plant response rating
Assay type in all cases: in vivo
[1] = tested on: oilseed rape (Brassica napus); details: for Oilseed Rape plant response rating: scale 0 to 100 (0 no effect, 100 complete control)
In short: (§1)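 Pre-emergence: seeds sown in loam soil–sand blend or silt loam and sprayed with test chemicals in a non-phytotoxic solvent mixture with surfactant. Post-emergence: plants 2 to 18 cm (1- to 4-leaf stage) in peat-based potting medium, same formulation. Greenhouse 13 to 15 d; visual rating 0 (no effect) to 100 (complete control) versus controls.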

soybean (Glycine max) = details: for Soybean plant response rating: scale 0 to 100 (0 no effect, 100 complete control)
In short: as §1

[2] = tested on: waterhemp (common waterhemp, Amaranthus rudis)
In short: as §1

[3] = tested on: galium (catchweed bedstraw, Galium aparine); details: for Galium plant response rating: scale 0 to 100 (0 no effect, 100 complete control)
In short: as §1

[4] = tested on: ragweed (common ragweed, Ambrosia elatior); details: for Ragweed plant response rating: scale 0 to 100 (0 no effect, 100 complete control)
In short: as §1

[5] = tested on: oat, wild (wild oat Avena fatua); details: for Oat, Wild plant response rating: scale 0 to 100 (0 no effect, 100 complete control)
In short: as §1

[6] = tested on: nutsedge, yellow (yellow nutsedge, Cyperus esculentus); details: for Nutsedge, Yellow plant response rating: scale 0 to 100 (0 no effect, 100 complete control)
In short: as §1

[7] = tested on: wheat (winter wheat, Triticum aestivum)
In short: as §1

[8] = tested on: blackgrass (Alopecurus myosuroides); details: for Plant response rating, Blackgrass: scale 0 to 100; for Blackgrass plant response rating: scale 0 to 100 (0 no effect, 100 complete control)
In short: as §1

kochia (Kochia scoparia) = details: for Kochia plant response rating: scale 0 to 100 (0 no effect, 100 complete control)
In short: as §1

[9] = tested on: ryegrass, Italian (Italian ryegrass, Lolium multiflorum); details: for Ryegrass, Italian plant response rating: scale 0 to 100 (0 no effect, 100 complete control)
In short: as §1

corn (Zea mays) = details: for Corn plant response rating: scale 0 to 100 (0 no effect, 100 complete control)
In short: as §1

[10] = tested on: velvetleaf (Abutilon theophrasti)
In short: as §1

[11] = tested on: lambsquarters (Chenopodium album); details: for Lambsquarters plant response rating: scale 0 to 100 (0 no effect, 100 complete control)
In short: as §1

[12] = tested on: crabgrass, large (large crabgrass, Digitaria sanguinalis); details: for Crabgrass, Large plant response rating: scale 0 to 100 (0 no effect, 100 complete control)
In short: as §1

[13] = 125 g ai/ha, scale 0 to 100 (0 no effect, 100 complete control)

For `FC(F)(F)CCCc1c(Br)cccc1Oc1ncc(Cl)cn1` [Compound 89], the “Plant response rating, Oilseed Rape” value ([1]; 16 g ai/ha, scale of 0 to 100) was 60, the “Plant response rating, Oilseed Rape” value ([1]; 31 g ai/ha, scale 0 to 100) was 95 and the “Oilseed Rape plant response rating” value ([1]; 62 g ai/ha) was 90. The “Oilseed Rape plant response rating” value ([1]; 125 g ai/ha) was 100, the “Plant response rating, Soybean” value (soybean (Glycine max); 16 g ai/ha, scale of 0 to 100) was 35 and the “Plant response rating, Soybean” value (soybean (Glycine max); 31 g ai/ha, scale 0 to 100) was 40. The “Soybean plant response rating” value (soybean (Glycine max); 62 g ai/ha) was 65, the “Soybean plant response rating” value (soybean (Glycine max); 125 g ai/ha) was 70 and the “Plant response rating, Waterhemp” value ([2]; 16 g ai/ha, scale of 0 to 100) was 70. The “Plant response rating, Waterhemp” value ([2]; 31 g ai/ha, scale 0 to 100) was 70, the “Waterhemp plant response rating” value [2, 13] was 95 and the “Plant response rating, Galium” value ([3]; 16 g ai/ha, scale of 0 to 100) was 75. The “Plant response rating, Galium” value ([3]; 31 g ai/ha, scale 0 to 100) was 75, the “Galium plant response rating” value ([3]; 62 g ai/ha) was 80 and the “Galium plant response rating” value ([3]; 125 g ai/ha) was 90. The “Plant response rating, Ragweed” value ([4]; 16 g ai/ha, scale of 0 to 100) was 0, the “Plant response rating, Ragweed” value ([4]; 31 g ai/ha, scale 0 to 100) was 5 and the “Ragweed plant response rating” value ([4]; 62 g ai/ha) was 10. For the same compound, the “Ragweed plant response rating” value ([4]; 125 g ai/ha) was 25, the “Plant response rating, Oat, Wild” value ([5]; 16 g ai/ha, scale of 0 to 100) was 15 and the “Plant response rating, Oat, Wild” value ([5]; 31 g ai/ha, scale 0 to 100) was 10. For the same compound, the “Oat, Wild plant response rating” value ([5]; 62 g ai/ha) was 40, the “Oat, Wild plant response rating” value ([5]; 125 g ai/ha) was 30 and the “Plant response rating, Nutsedge, Yellow” value ([6]; 16 g ai/ha, scale of 0 to 100) was 0. For the same compound, the “Plant response rating, Nutsedge, Yellow” value ([6]; 31 g ai/ha, scale 0 to 100) was 0, the “Nutsedge, Yellow plant response rating” value ([6]; 62 g ai/ha) was 0 and the “Nutsedge, Yellow plant response rating” value ([6]; 125 g ai/ha) was 5. For the same compound, the “Plant response rating, Wheat” value ([7]; 16 g ai/ha, scale of 0 to 100) was 0, the “Plant response rating, Wheat” value ([7]; 31 g ai/ha, scale 0 to 100) was 10 and the “Wheat plant response rating” value [7, 13] was 15. For the same compound, the “Plant response rating, Blackgrass” value ([8]; 16 g ai/ha) was 10, the “Plant response rating, Blackgrass” value ([8]; 31 g ai/ha) was 15 and the “Blackgrass plant response rating” value ([8]; 62 g ai/ha) was 30. The “Blackgrass plant response rating” value ([8]; 125 g ai/ha) was 45, the “Plant response rating, Kochia” value (kochia (Kochia scoparia); 16 g ai/ha, scale of 0 to 100) was 70 and the “Plant response rating, Kochia” value (kochia (Kochia scoparia); 31 g ai/ha, scale 0 to 100) was 75. For the same compound, the “Kochia plant response rating” value (kochia (Kochia scoparia); 62 g ai/ha) was 80, the “Kochia plant response rating” value (kochia (Kochia scoparia); 125 g ai/ha) was 95 and the “Plant response rating, Ryegrass, Italian” value ([9]; 16 g ai/ha, scale of 0 to 100) was 5. The “Plant response rating, Ryegrass, Italian” value ([9]; 31 g ai/ha, scale 0 to 100) was 5, the “Ryegrass, Italian plant response rating” value ([9]; 62 g ai/ha) was 5 and the “Ryegrass, Italian plant response rating” value ([9]; 125 g ai/ha) was 10. For the same compound, the “Plant response rating, Corn” value (corn (Zea mays); 16 g ai/ha, scale of 0 to 100) was 15, the “Plant response rating, Corn” value (corn (Zea mays); 31 g ai/ha, scale 0 to 100) was 15 and the “Corn plant response rating” value (corn (Zea mays); 62 g ai/ha) was 15. The “Corn plant response rating” value (corn (Zea mays); 125 g ai/ha) was 20, the “Plant response rating, Velvetleaf” value ([10]; 16 g ai/ha, scale of 0 to 100) was 20 and the “Plant response rating, Velvetleaf” value ([10]; 31 g ai/ha, scale 0 to 100) was 35. For the same compound, the “Velvetleaf plant response rating” value [10, 13] was 70, the “Plant response rating, Lambsquarters” value ([11]; 16 g ai/ha, scale of 0 to 100) was 70 and the “Plant response rating, Lambsquarters” value ([11]; 31 g ai/ha, scale 0 to 100) was 75. For the same compound, the “Lambsquarters plant response rating” value ([11]; 62 g ai/ha) was 100, the “Lambsquarters plant response rating” value ([11]; 125 g ai/ha) was 100 and the “Plant response rating, Crabgrass, Large” value ([12]; 16 g ai/ha, scale of 0 to 100) was 55. For the same compound, the “Plant response rating, Crabgrass, Large” value ([12]; 31 g ai/ha, scale 0 to 100) was 60, the “Crabgrass, Large plant response rating” value ([12]; 62 g ai/ha) was 85 and the “Crabgrass, Large plant response rating” value ([12]; 125 g ai/ha) was 90.
